Measurements from US8324235B2, “Heterocyclic spiro-compounds” (Novartis AG, priority 2007, dated 2012).
Read-outs that look alike come from different tables or passages of the source.

How the values were obtained:
[1] = biological target: T1, recombinant human Cyp19 enzyme (aromatase) (Homo sapiens, UniProt P11511); assay: Cyp19/MFC high throughput aromatase inhibition kit; assay type: biochemical
T1 construct: purchased Becton Dickinson Biosciences, San Jose, Calif., USA
T1 sequence (P11511 1-503): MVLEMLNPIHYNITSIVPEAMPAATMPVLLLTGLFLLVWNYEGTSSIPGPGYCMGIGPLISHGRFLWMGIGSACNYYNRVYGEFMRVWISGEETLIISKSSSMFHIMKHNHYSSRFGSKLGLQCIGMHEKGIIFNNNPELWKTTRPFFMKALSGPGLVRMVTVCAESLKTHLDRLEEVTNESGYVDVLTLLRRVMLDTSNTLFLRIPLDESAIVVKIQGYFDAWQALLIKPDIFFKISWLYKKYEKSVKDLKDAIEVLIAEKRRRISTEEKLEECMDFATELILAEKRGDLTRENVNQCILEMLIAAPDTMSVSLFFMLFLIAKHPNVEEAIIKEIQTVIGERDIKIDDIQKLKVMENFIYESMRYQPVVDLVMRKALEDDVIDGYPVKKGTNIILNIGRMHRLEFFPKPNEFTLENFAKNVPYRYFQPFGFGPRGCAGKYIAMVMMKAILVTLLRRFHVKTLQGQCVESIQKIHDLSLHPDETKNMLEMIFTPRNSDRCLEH
Method: The compounds of the formula (I′) have at least one asymmetric carbon atom, which is labelled “*”. A compound of the formula (I′) is to be understood as a compound having a specific configuration around the designated asymmetric carbon atom. If a synthesis method is used which leads to racemic compounds, the racemate resolution is carried out in accordance with conventional methods, such as via a chiral HPLC column. […] The aforementioned aromatase inhibitory activity can, as the skilled worker is well aware and as described below, be comfortably determined via the commercial Cyp19 enzyme inhibition kit (vide infra). In the abovementioned inhibition kit, compounds of the formula (I′) have an activity which is at least 10 times lower, preferably 20 times lower than the compounds of the formula (I′) with the opposite configuration around the asymmetric carbon atom labelled “*”.
The enzyme aromatese (CYP19) mediates the rate-limiting step of estrogen biosynthesis in human and rodent species. As estrogens control the sexual characteristics and reproduction as well as various structural and functional tissue features, compounds intended for the herein disclosed therapeutic use should at therapeutic dose levels show no or only minor interference with aromatase.
The concentration-dependent interference of the compounds with aromatase can be measured in vitro using a commercial Cyp19 enzyme inhibition kit and the manufacturer's instructions.
The Cyp19/methoxy-4-trifluoromethyl-coumarin (MFC) high throughput inhibition kit (Becton Dickinson Biosciences, San Jose, Calif., USA), for example, is designed to screen for potential inhibitors of Cyp19 catalytic activity in a 96-well format. The kit includes recombinant human Cyp19 enzyme in the form of supersomes, a fluorescent P450 substrate, an NADPH regenerating system, a reaction buffer and a stop reagent. MFC, the fluorogenic substrate is rapidly converted by Cyp19 supersomes to the highly fluorescent product 7-hydroxy-4-trifluoromethyl coumarin (7-HFC). The execution of the assay in the presence of various concentrations of inhibitor compounds ranging from 0.2 nanomolar to […] occurs according to the manufacturer's instructions. The concentration-dependent inhibition of aromatase activity can be quantified using the equation described above for the in vitro testing of aldosterone synthase inhibition in NCI-H295R cells to generate IC50 values (inhibitory concentration in mol/l yielding 50% of the maximal inhibition).

[2] = biological target: T2, 11beta hydroxylase (CYP11B1) (Rattus norvegicus, UniProt P15393); assay: Suppression of plasma corticosterone levels in ACTH-stimulated rats; assay type: in vivo, Wistar rats; conditions: 4 mg/kg p.o., 2 h after dosing vs 1 h before dosing
T2 construct: from tissue; host or cells: live Wistar rat (adrenal gland)
T2 sequence (P15393 25-499): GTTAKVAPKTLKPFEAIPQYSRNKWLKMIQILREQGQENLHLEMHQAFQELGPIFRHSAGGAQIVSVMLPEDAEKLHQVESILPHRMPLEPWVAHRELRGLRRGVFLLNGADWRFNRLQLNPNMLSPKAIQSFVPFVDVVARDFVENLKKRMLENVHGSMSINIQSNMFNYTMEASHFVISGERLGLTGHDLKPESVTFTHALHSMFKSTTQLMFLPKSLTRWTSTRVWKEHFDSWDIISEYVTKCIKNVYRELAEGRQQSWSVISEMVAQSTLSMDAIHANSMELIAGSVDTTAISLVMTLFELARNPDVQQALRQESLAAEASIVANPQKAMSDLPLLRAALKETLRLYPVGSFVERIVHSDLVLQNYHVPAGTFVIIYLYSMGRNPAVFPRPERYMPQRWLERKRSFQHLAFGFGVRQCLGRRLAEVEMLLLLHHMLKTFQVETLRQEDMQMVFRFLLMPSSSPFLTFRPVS
Method: (§1) Adult male Wistar rats weighing between 250 and 350 grams are kept under the usual 12-hour light and 12-hour dark conditions at a temperature of 23° C.±2° C. On the first day of the experiment, the animals receive a subcutaneous injection of a depot ACTH product in a dose of 1.0 mg/kg weight (SYNACTHEN-Depot, Novartis, Basel, CH) 16 hours prior to the administration of a test compound. […] An alternative method to stimulate aldosterone secretion consists in subjecting rats to a low salt diet for 48 hours and applying the diuretic furosemide at 10 mg/kg by subcutaneous or intraperitoneal administration 16 hours, respectively 2 hours prior to the start of the experiment. On the second day of the experiment, the animals are divided into test groups of 5 animals and subjected to a first bleed 1 hour prior to the administration of test compound. […] The aldosterone concentrations of the plasma samples can be determined with a radioimmunoassay as described above for the in vitro test systems. […]
The selective suppression of plasma steroid levels as for instance aldosterone in comparison to corticosterone may serve as a measure for in vivo bioavailability and pharmacodynamic enzyme inhibitory activity of the herein described compounds. The evaluation of the data may occur relative to the application of vehicle or quantitatively by determination of the area under the curve (AUC). […]

[3] = biological target: T3, aldosterone synthase (CYP11B2) (Rattus norvegicus, UniProt P30099); assay: Suppression of plasma aldosterone levels in ACTH-stimulated rats; assay type: in vivo, Wistar rats; conditions: 4 mg/kg p.o., 2 h after dosing vs 1 h before dosing
T3 construct: from tissue; host or cells: live Wistar rat (adrenal gland, zona glomerulosa)
T3 sequence (P30099 35-510): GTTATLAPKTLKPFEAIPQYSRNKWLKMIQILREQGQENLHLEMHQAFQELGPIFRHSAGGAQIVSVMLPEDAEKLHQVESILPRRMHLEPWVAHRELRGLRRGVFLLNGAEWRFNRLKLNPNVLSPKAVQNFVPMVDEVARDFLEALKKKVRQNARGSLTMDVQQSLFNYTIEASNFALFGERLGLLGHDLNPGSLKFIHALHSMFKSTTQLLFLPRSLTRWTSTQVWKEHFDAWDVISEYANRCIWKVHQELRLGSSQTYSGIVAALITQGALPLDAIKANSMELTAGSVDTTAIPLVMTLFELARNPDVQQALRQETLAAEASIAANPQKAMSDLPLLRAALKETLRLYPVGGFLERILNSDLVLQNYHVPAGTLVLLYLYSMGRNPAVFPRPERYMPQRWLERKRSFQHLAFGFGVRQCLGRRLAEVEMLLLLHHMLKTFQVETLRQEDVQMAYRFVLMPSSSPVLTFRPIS
Method: The target efficacy of the compounds disclosed in the present invention to dose-dependently suppress aldosterone levels in vivo may be assessed with the following protocol:
as §1, with “experiment.” for “experiment. On the second day of the experiment, the animals are divided into test groups of 5 animals and subjected to a first bleed 1 hour prior to the administration of test compound.”
The selective suppression of plasma steroid levels as for instance aldosterone in comparison to corticosterone may serve as a measure for in vivo bioavailability and pharmacodynamic enzyme inhibitory activity of the herein described compounds. The evaluation of the data may occur relative to the application of vehicle or quantitatively by determination of the area under the curve (AUC).

[4] = enantiomers with differing aromatase inhibition, read-out: IC50 value (aromatase inhibition, enantiomers)
[5] = average of several measurements, read-out: IC50 value (aromatase inhibition)

| IC50 [1, 4] [nM] | Compound | Corticosterone levels (% change at 2 h) [2] [%] | Aldosterone levels (% change at 2 h) [3] [%] | IC50 [1, 5] [nM] |
| --- | --- | --- | --- | --- |
| 922 | N#Cc1ccc2c(c1)COC21CCn2cncc21 (single isomer, unassigned) [Example 23, (1S) or (1R)-5′,6′-Dihydro-3H-spiro[2-benzofuran-1,7′-pyrrolo[1,2-c]imidazole]-5-carbonitrile] |  |  |  |
| 31.8 | N#Cc1ccc2c(c1)COC21CCn2cncc21 (single isomer, unassigned) [antipode of 23] |  |  |  |
|  | N#Cc1ccc2c(c1)COC21CCCn2cncc21 (centres unmarked) [Example 1, 6′,7′-Dihydro-3H,5′H-spiro[2-benzofuran-1,8′-imidazo[1,5-a]pyridine]-5-carbonitrile] | −7.7 | −67.6 | 64.6 |
|  | N#Cc1ccc2c(c1)C1(CCCn3cncc31)OC2 (centres unmarked) [Example 4, 6′,7′-Dihydro-3H,5′H-spiro[2-benzofuran-1,8′-imidazo[1,5-a]pyridine]-6-carbonitrile] | 0.9 | −50.2 | 406 |
